In paper PMC9609330:
Each block holds one molecule with its values, some of them ahead of it.

Tests used:
[1] = system: AT11-L2 (DNA, G4) TGGTGGTGGTTGTTGTTGGTGGTGGTGGT; test: CD melting; settings: K+ 100 mM, 10 mM lithium cacodylate pH 7.2, 10 µM DNA, 2.0 eq. ligand (20 µM)
[2] = system: 5′-Cy5-AT11-L2 (DNA, G4) TGGTGGTGGTTGTTGTTGGTGGTGGTGGT; test: fluorescence titration (Cy5 quenching), Michaelis–Menten fit; settings: K+ 100 mM; 10 mM lithium cacodylate; 1 µM DNA; apparent KD
[3] = system: 5′-Cy5-AT11-L2 (DNA, G4) TGGTGGTGGTTGTTGTTGGTGGTGGTGGT; test: fluorescence titration (Cy5 quenching), Hill fit; settings: K+ 100 mM, 10 mM lithium cacodylate, 1 µM DNA, apparent KD
[4] = molecular target: T1, nucleolin RBD1,2 (NCL RBD1,2) (UniProt P19338 307-466); test: fluorescence titration; 360A (pre-formed G4/ligand complex); Oligonucleotide annealed in 10 mM lithium cacodylate pH 7.2, 100 mM KCl (95 °C 10 min, then ice 10 min); titration temperature not given in the material; settings: protein: recombinant; label: 5'-Cy5; intramolecular G4, parallel in 100 mM KCl
T1 sequence (P19338 307-466): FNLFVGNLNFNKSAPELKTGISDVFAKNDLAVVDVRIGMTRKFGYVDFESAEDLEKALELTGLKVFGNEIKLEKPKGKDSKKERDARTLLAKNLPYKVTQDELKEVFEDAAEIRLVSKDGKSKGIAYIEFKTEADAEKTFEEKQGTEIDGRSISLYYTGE

[5] = molecular target: T1, nucleolin RBD1,2 (NCL RBD1,2); test: fluorescence titration; PhenDC3 (pre-formed G4/ligand complex); Oligonucleotide annealed in 10 mM lithium cacodylate pH 7.2, 100 mM KCl (95 °C 10 min, then ice 10 min); titration temperature not given in the material; settings: protein: recombinant; label: 5'-Cy5; intramolecular G4, parallel in 100 mM KCl
[6] = molecular target: T1, nucleolin RBD1,2 (NCL RBD1,2); test: fluorescence titration; BRACO-19 (pre-formed G4/ligand complex); Oligonucleotide annealed in 10 mM lithium cacodylate pH 7.2, 100 mM KCl (95 °C 10 min, then ice 10 min); titration temperature not given in the material; settings: protein: recombinant; label: 5'-Cy5; intramolecular G4, parallel in 100 mM KCl
[7] = molecular target: T1, nucleolin RBD1,2 (NCL RBD1,2); test: fluorescence titration; TMPyP4 (pre-formed complex; TMPyP4 excess disrupts the G4); Oligonucleotide annealed in 10 mM lithium cacodylate pH 7.2, 100 mM KCl (95 °C 10 min, then ice 10 min); titration temperature not given in the material; settings: protein: recombinant; label: 5'-Cy5; intramolecular G4, parallel in 100 mM KCl
[8] = molecular target: T1, nucleolin RBD1,2 (NCL RBD1,2); test: fluorescence titration; PDS (pre-formed G4/ligand complex); Oligonucleotide annealed in 10 mM lithium cacodylate pH 7.2, 100 mM KCl (95 °C 10 min, then ice 10 min); titration temperature not given in the material; settings: protein: recombinant; label: 5'-Cy5; intramolecular G4, parallel in 100 mM KCl

Molecule: NCCOc1cc(C(=O)Nc2cc(OCCN)c3ccccc3n2)nc(C(=O)Nc2cc(OCCN)c3ccccc3n2)c1
ΔTm [1]: 1.8 °C | KD [2]: 14 ± 4.9 nM

Molecule: CN(C)c1ccc(Nc2c3ccc(NC(=O)CCN4CCCC4)cc3nc3cc(NC(=O)CCN4CCCC4)ccc23)cc1
KD ([3]; Hill n = 0.9): 5600 ± 2000 nM | ΔTm [1]: 22.5 °C

Molecule: TGGTGGTGGTTGTTGTTGGTGGTGGTGGT (structured_DNA) [5'-Cy5-AT11-L2 G4]
Kd [4]: 6400 nM | Kd [5]: 18 nM | Kd [6]: 150 nM | Kd [7]: 1.2 nM | Kd [8]: 63 nM

Other lines, results leading:

KD ([3]; Hill n = 0.6): 31000 ± 60000 nM | ΔTm [1]: 6.5 °C
Molecule: C[n+]1cc(NC(=O)c2cccc(C(=O)Nc3cc4ccccc4[n+](C)c3)n2)cc2ccccc21

KD ([3]; Hill n = 2.2): 1400 ± 85 nM | ΔTm [1]: 14.9 °C
Molecule: C[n+]1cc(NC(=O)c2ccc3ccc4ccc(C(=O)Nc5cc6ccccc6[n+](C)c5)nc4c3n2)cc2ccccc21

KD ([3]; Hill n = 1.2): 1300 ± 150 nM | ΔTm ([1]; unfolds G4 at 3.5 eq.): 22.9 °C
Molecule: C[n+]1ccc(-c2c3nc(c(-c4cc[n+](C)cc4)c4ccc([nH]4)c(-c4cc[n+](C)cc4)c4nc(c(-c5cc[n+](C)cc5)c5ccc2[nH]5)C=C4)C=C3)cc1
